In PubChem BioAssay (NCI):
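Where inhibition never reached the appropriate level, the endpoint shown equals the highest concentration tested. Otherwise, values were interpolated linearly from a five-concentration, 48-hour dose response in 96-well plates. GI50 marks 50% less growth. TGI denotes the concentration required for complete inhibition of growth.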

Experiments:
Test in all cases: NCI anticancer screen, dose series, 48 h
TK-10 renal = tested on: TK-10 renal
SNB-75 CNS = tested on: SNB-75 CNS
MALME-3M melanoma = tested on: MALME-3M melanoma
UACC-62 melanoma = tested on: UACC-62 melanoma
K-562 leukemia = tested on: K-562 leukemia
HOP-92 NSCLC = tested on: HOP-92 NSCLC
U251 CNS = tested on: U251 CNS
NCI/ADR-RES ovarian = tested on: NCI/ADR-RES ovarian
SF-295 CNS = tested on: SF-295 CNS
OVCAR-5 ovarian = tested on: OVCAR-5 ovarian
RPMI-8226 leukemia = tested on: RPMI-8226 leukemia
KM12 colon = tested on: KM12 colon
OVCAR-8 ovarian = tested on: OVCAR-8 ovarian
SK-MEL-5 melanoma = tested on: SK-MEL-5 melanoma
SF-539 CNS = tested on: SF-539 CNS
M14 melanoma = tested on: M14 melanoma
HCC-2998 colon = tested on: HCC-2998 colon
COLO 205 colon = tested on: COLO 205 colon
NCI-H522 lung = tested on: NCI-H522 lung
HT29 colon = tested on: HT29 colon
ACHN renal = tested on: ACHN renal
SNB-19 CNS = tested on: SNB-19 CNS
CAKI-1 renal = tested on: CAKI-1 renal
MDA-MB-468 breast = tested on: MDA-MB-468 breast
OVCAR-4 ovarian = tested on: OVCAR-4 ovarian
SK-MEL-28 melanoma = tested on: SK-MEL-28 melanoma
SF-268 CNS = tested on: SF-268 CNS
NCI-H23 lung = tested on: NCI-H23 lung
SK-OV-3 ovarian = tested on: SK-OV-3 ovarian
SR leukemia = tested on: SR leukemia
MOLT-4 leukemia = tested on: MOLT-4 leukemia
MCF7 breast = tested on: MCF7 breast
SK-MEL-2 melanoma = tested on: SK-MEL-2 melanoma
NCI-H460 lung = tested on: NCI-H460 lung
786-0 renal = tested on: 786-0 renal
A549 NSCLC = tested on: A549 NSCLC
MDA-MB-435 = tested on: MDA-MB-435
HCT-15 colon = tested on: HCT-15 colon
RXF 393 renal = tested on: RXF 393 renal
NCI-H226 lung = tested on: NCI-H226 lung
IGROV1 ovarian = tested on: IGROV1 ovarian
BT-549 breast = tested on: BT-549 breast
MDA-MB-231 breast = tested on: MDA-MB-231 breast
EKVX NSCLC = tested on: EKVX NSCLC
DU-145 prostate = tested on: DU-145 prostate
HOP-62 NSCLC = tested on: HOP-62 NSCLC
HCT-116 colon = tested on: HCT-116 colon
T-47D breast = tested on: T-47D breast
SW-620 colon = tested on: SW-620 colon
A498 renal = tested on: A498 renal
SN12C renal = tested on: SN12C renal
LOX IMVI melanoma = tested on: LOX IMVI melanoma
HS 578T breast = tested on: HS 578T breast
UO-31 renal = tested on: UO-31 renal
PC-3 prostate = tested on: PC-3 prostate
UACC-257 melanoma = tested on: UACC-257 melanoma
HL-60(TB) leukemia = tested on: HL-60(TB) leukemia
OVCAR-3 ovarian = tested on: OVCAR-3 ovarian
CCRF-CEM leukemia = tested on: CCRF-CEM leukemia

## CN(C)CCOc1ccc(C(=O)C2[C@H](c3ccc(Cl)cc3)[C@@H](c3ccccc3)NC23C(=O)Nc2ccc(Cl)cc23)cc1 (stereo partly drawn)
TK-10 renal
  GI50: 14 µM
  TGI: 27.3 µM
SNB-75 CNS
  GI50: 10.4 µM
  TGI: 24.7 µM
MALME-3M melanoma
  GI50: 14.7 µM
  TGI: 29.7 µM
UACC-62 melanoma
  GI50: 15.1 µM
  TGI: 28.7 µM
K-562 leukemia
  GI50: 13 µM
  TGI: 34.2 µM
HOP-92 NSCLC
  GI50: 8.92 µM
  TGI: 22.2 µM
U251 CNS
  GI50: 15.3 µM
  TGI: 29.3 µM
NCI/ADR-RES ovarian
  GI50: 16.6 µM
  TGI: 31.4 µM
SF-295 CNS
  GI50: 16.3 µM
  TGI: 30.5 µM
OVCAR-5 ovarian
  GI50: 14.6 µM
  TGI: 27.8 µM
RPMI-8226 leukemia
  GI50: 18.6 µM
  TGI: 43.4 µM
KM12 colon
  GI50: 13.6 µM
  TGI: 29 µM
OVCAR-8 ovarian
  GI50: 16.3 µM
  TGI: 31.5 µM
SK-MEL-5 melanoma
  GI50: 15.8 µM
  TGI: 29.2 µM
SF-539 CNS
  GI50: 14.7 µM
  TGI: 27.8 µM
M14 melanoma
  GI50: 16 µM
  TGI: 29.8 µM
HCC-2998 colon
  GI50: 13.4 µM
  TGI: 26.9 µM
COLO 205 colon
  GI50: 15.6 µM
  TGI: 29.3 µM
NCI-H522 lung
  GI50: 14.8 µM
  TGI: 29.1 µM
HT29 colon
  GI50: 14.4 µM
  TGI: 28.1 µM
ACHN renal
  GI50: 14.5 µM
  TGI: 27.6 µM
SNB-19 CNS
  GI50: 15.6 µM
  TGI: 29.2 µM
CAKI-1 renal
  GI50: 13.4 µM
  TGI: 26.3 µM
MDA-MB-468 breast
  GI50: 8.98 µM
  TGI: 22.3 µM
OVCAR-4 ovarian
  GI50: 14.4 µM
  TGI: 29 µM
SK-MEL-28 melanoma
  GI50: 16.2 µM
  TGI: 29.9 µM
SF-268 CNS
  GI50: 15 µM
  TGI: 33.5 µM
NCI-H23 lung
  GI50: 16.4 µM
  TGI: 31 µM
SK-OV-3 ovarian
  GI50: 14.3 µM
  TGI: 27.7 µM
SR leukemia
  GI50: 13.7 µM
  TGI: 29.7 µM
MOLT-4 leukemia
  GI50: 12.6 µM
  TGI: 29.6 µM
MCF7 breast
  GI50: 5.71 µM
  TGI: 18.8 µM
SK-MEL-2 melanoma
  GI50: 15.9 µM
  TGI: 30 µM
NCI-H460 lung
  GI50: 13 µM
  TGI: 26.3 µM
786-0 renal
  GI50: 15 µM
  TGI: 29.2 µM
A549 NSCLC
  GI50: 14.3 µM
  TGI: 28.9 µM
MDA-MB-435
  GI50: 14.5 µM
  TGI: 28.2 µM
HCT-15 colon
  GI50: 15.2 µM
  TGI: 28.8 µM
RXF 393 renal
  GI50: 10.8 µM
  TGI: 23.6 µM
NCI-H226 lung
  GI50: 15.3 µM
  TGI: 33.1 µM
IGROV1 ovarian
  GI50: 14.3 µM
  TGI: 28.2 µM
BT-549 breast
  GI50: 14.4 µM
  TGI: 27.7 µM
MDA-MB-231 breast
  GI50: 15.1 µM
  TGI: 28.7 µM
EKVX NSCLC
  GI50: 14.3 µM
  TGI: 28.1 µM
DU-145 prostate
  GI50: 15.9 µM
  TGI: 30.2 µM
HOP-62 NSCLC
  GI50: 12.7 µM
  TGI: 26 µM
HCT-116 colon
  GI50: 12.8 µM
  TGI: 26 µM
T-47D breast
  GI50: 14.6 µM
  TGI: 30 µM
SW-620 colon
  GI50: 12.3 µM
  TGI: 25.3 µM
A498 renal
  GI50: 14.6 µM
  TGI: 28.1 µM
SN12C renal
  GI50: 13.5 µM
  TGI: 26.7 µM
LOX IMVI melanoma
  GI50: 13.5 µM
  TGI: 26.8 µM
HS 578T breast
  GI50: 12.5 µM
  TGI: 34.2 µM
UO-31 renal
  GI50: 12.8 µM
  TGI: 25.5 µM
PC-3 prostate
  GI50: 15.5 µM
  TGI: 31.7 µM
UACC-257 melanoma
  GI50: 15.7 µM
  TGI: 30.6 µM
HL-60(TB) leukemia
  GI50: 11 µM
  TGI: 28.1 µM
OVCAR-3 ovarian
  GI50: 14.2 µM
  TGI: 29.9 µM
CCRF-CEM leukemia
  GI50: 16.8 µM
  TGI: 34.8 µM
